Assay: xn = mol fraction of the nth substance listed
Details: 101 kPa, Liquid

CCCCCCCCO [octan-1-ol] + CCCCCCCCCCCO
x1 = 1
Details | mass density [kg/m3] | viscosity [mPa·s]
293.15 K | 825.2 | 8.944
298.15 K | 821.9 | 7.498
303.15 K | 818.4 | 6.273
308.15 K | 815 | 5.342
313.15 K | 811.4 | 4.54

CCCCCCCCCCCO [1-undecanol] + CCCCCCCCO
Details | mass density, 293.15 K [kg/m3] | mass density, 298.15 K [kg/m3] | mass density, 303.15 K [kg/m3] | mass density, 308.15 K [kg/m3] | mass density, 313.15 K [kg/m3] | viscosity, 293.15 K [mPa·s] | viscosity, 298.15 K [mPa·s] | viscosity, 303.15 K [mPa·s] | viscosity, 308.15 K [mPa·s] | viscosity, 313.15 K [mPa·s]
x2 = 0 | 832.2 | 828.8 | 825.4 | 821.7 | 818.6 | 17.28 | 13.72 | 11.52 | 9.35 | 7.841
x2 = 0.1003 | 831.5 | 828.1 | 824.8 | 821.3 | 817.8 | 16.4 | 13.35 | 10.95 | 9.118 | 7.665
x2 = 0.2001 | 831 | 827.6 | 824.2 | 820.7 | 817.3 | 15.21 | 12.54 | 10.36 | 8.645 | 7.35
x2 = 0.2998 | 830.5 | 827 | 823.6 | 820.2 | 816.8 | 14.4 | 11.97 | 9.808 | 8.207 | 6.995
x2 = 0.4001 | – | – | 822.9 | – | – | – | – | 9.281 | – | –
x2 = 0.4002 | 829.7 | 826.3 | – | 819.5 | 816 | 13.8 | 11.23 | – | 7.773 | 6.652
x2 = 0.4999 | 829 | 825.6 | 822.2 | 818.8 | 815.3 | 12.78 | 10.64 | 8.745 | 7.392 | 6.336
x2 = 0.5998 | 828.3 | 824.9 | 821.5 | 818.1 | 814.6 | 12.19 | 9.948 | 8.252 | 6.989 | 5.991
x2 = 0.6998 | 827.7 | 824.3 | 820.8 | 817.4 | 813.9 | 10.95 | 9.276 | 7.691 | 6.49 | 5.615
x2 = 0.8 | 826.9 | 823.5 | 820.1 | 816.6 | 813.1 | 10.24 | 8.693 | 7.271 | 6.137 | 5.295
x2 = 0.8999 | 826.2 | 822.8 | 819.3 | 815.8 | 812.3 | 9.416 | 8.002 | 6.723 | 5.728 | 4.957

CCCCCCCCO [octan-1-ol] + CCCCCCCCCO
x1 = 1
Details | mass density [kg/m3] | viscosity [mPa·s]
283.15 K | 832.1 | 13.49
288.15 K | 828.6 | 10.87
293.15 K | 825.2 | 8.944
298.15 K | 821.9 | 7.498
303.15 K | 818.4 | 6.273
308.15 K | 815 | 5.342
313.15 K | 811.4 | 4.54

CCCCCCCCCCO [decan-1-ol] + CCCCCCCCCCCO
x1 = 1
Details | mass density [kg/m3] | viscosity [mPa·s]
293.15 K | 829.9 | 14.39
298.15 K | 826.5 | 11.74
303.15 K | 823 | 9.561
308.15 K | 819.6 | 8
313.15 K | 816.3 | 6.831

CCCCCCCCCCO [decan-1-ol] + CCCCCCCCCO
x2 = 0
Details | mass density [kg/m3] | viscosity [mPa·s]
283.15 K | 836.6 | 22.06
288.15 K | 833.3 | 17.99
293.15 K | 829.9 | 14.39
298.15 K | 826.5 | 11.74
303.15 K | 823 | 9.561
308.15 K | 819.6 | 8
313.15 K | 816.3 | 6.831

CCCCCCCCCCCO [1-undecanol] + CCCCCCCCCCO
Details | mass density, 293.15 K [kg/m3] | mass density, 298.15 K [kg/m3] | mass density, 303.15 K [kg/m3] | mass density, 308.15 K [kg/m3] | mass density, 313.15 K [kg/m3] | viscosity, 293.15 K [mPa·s] | viscosity, 298.15 K [mPa·s] | viscosity, 303.15 K [mPa·s] | viscosity, 308.15 K [mPa·s] | viscosity, 313.15 K [mPa·s]
x2 = 0 | 832.2 | 828.8 | 825.4 | 821.7 | 818.6 | 17.28 | 13.72 | 11.52 | 9.35 | 7.841
x2 = 0.1007 | 832 | 828.7 | 825.2 | 821.6 | 818.2 | 16.88 | 13.52 | 11.27 | 9.368 | 7.805
x2 = 0.1997 | 831.5 | 828.1 | 824.8 | 821.4 | 818 | 16.68 | 13.31 | 11.08 | 9.233 | 7.778
x2 = 0.2999 | 831.4 | 828 | 824.6 | 821.2 | 817.8 | 16.14 | 13.23 | 10.89 | 9.057 | 7.655
x2 = 0.3998 | 831.2 | 827.8 | 824.4 | 821 | 817.5 | 16.08 | 12.88 | 10.7 | 8.909 | 7.579
x2 = 0.4997 | 831 | 827.6 | 824.2 | 820.8 | 817.3 | 15.59 | 12.79 | 10.51 | 8.76 | 7.452
x2 = 0.5978 | 830.8 | 827.4 | 824 | 820.6 | 817.1 | 15.59 | 12.58 | 10.34 | 8.652 | 7.323
x2 = 0.6999 | 830.5 | 827.1 | 823.7 | 820.3 | 816.9 | 15.28 | 12.35 | 10.14 | 8.504 | 7.249
x2 = 0.7989 | 830.4 | 827 | 823.5 | 820.2 | 816.7 | 14.5 | 12.12 | 9.958 | 8.357 | 7.068
x2 = 0.8995 | 830.1 | 826.8 | 823.3 | 819.9 | 816.5 | 14.76 | 11.98 | 9.777 | 8.185 | 6.94

CCCCCCCCCO [nonan-1-ol] + CCCCCCCCCCCO
x1 = 1
Details | mass density [kg/m3] | viscosity [mPa·s]
293.15 K | 828.1 | 11.63
298.15 K | 824.7 | 9.519
303.15 K | 821.3 | 7.806
308.15 K | 817.8 | 6.604
313.15 K | 814.3 | 5.668

CCCCCCCCCCCO [1-undecanol] + CCCCCCCCCO
Details | mass density, 293.15 K [kg/m3] | mass density, 298.15 K [kg/m3] | mass density, 303.15 K [kg/m3] | mass density, 308.15 K [kg/m3] | mass density, 313.15 K [kg/m3] | viscosity, 293.15 K [mPa·s] | viscosity, 298.15 K [mPa·s] | viscosity, 303.15 K [mPa·s] | viscosity, 308.15 K [mPa·s] | viscosity, 313.15 K [mPa·s]
x2 = 0 | 832.2 | 828.8 | 825.4 | 821.7 | 818.6 | 17.28 | 13.72 | 11.52 | 9.35 | 7.841
x2 = 0.1002 | 831.7 | 828.3 | 824.9 | 821.5 | 818.1 | 16.58 | 13.43 | 11.15 | 9.247 | 7.609
x2 = 0.1996 | 831.3 | 827.9 | 824.5 | 821.1 | 817.7 | 16.08 | 12.83 | 10.73 | 8.926 | 7.373
x2 = 0.3004 | 830.9 | 827.5 | 824.1 | 820.7 | 817.3 | 15.38 | 12.55 | 10.37 | 8.681 | 7.298
x2 = 0.4001 | 830.6 | 827.2 | 823.8 | 820.3 | 816.9 | 14.91 | 11.98 | 9.973 | 8.333 | 7.04
x2 = 0.5 | 830.2 | 826.8 | 823.4 | 819.9 | 816.5 | 14.29 | 11.52 | 9.577 | 8.014 | 6.872
x2 = 0.6002 | 829.8 | 826.4 | 823 | 819.5 | 816.1 | 13.61 | 11.32 | 9.2 | 7.71 | 6.627
x2 = 0.6994 | 830.1 | 826.6 | 823.2 | 819.7 | 816.3 | 12.84 | 10.55 | 8.746 | 7.333 | 6.267
x2 = 0.7995 | 829.1 | 825.6 | 822.2 | 818.8 | 815.3 | 12.68 | 10.35 | 8.272 | 7.133 | 6.138
x2 = 0.8988 | – | – | – | 818.1 | – | – | – | – | 6.897 | –
x2 = 0.8997 | 828.4 | 825 | 821.5 | – | 814.6 | 12.13 | 9.929 | 8.195 | – | 5.93
